Active and inactive are the calls of the source.
Columns and labels:
[1] = biological target: T1, Aryl hydrocarbon receptor (Homo sapiens, UniProt P35869); assay: Luminescence-based cell-based high throughput dose response assay for activators of the Aryl Hydrocarbon Receptor (AHR). [Related pubchem assays: 2796 (Primary screen (AHR activators in singlicate)), 2845 (Confirmation screen (AHR activators in triplicate)), 434939 (Counterscreen (PXR activators in triplicate)), 2804 (Summary (AHR activators))]; type: ADME
T1 sequence (P35869 whole entry): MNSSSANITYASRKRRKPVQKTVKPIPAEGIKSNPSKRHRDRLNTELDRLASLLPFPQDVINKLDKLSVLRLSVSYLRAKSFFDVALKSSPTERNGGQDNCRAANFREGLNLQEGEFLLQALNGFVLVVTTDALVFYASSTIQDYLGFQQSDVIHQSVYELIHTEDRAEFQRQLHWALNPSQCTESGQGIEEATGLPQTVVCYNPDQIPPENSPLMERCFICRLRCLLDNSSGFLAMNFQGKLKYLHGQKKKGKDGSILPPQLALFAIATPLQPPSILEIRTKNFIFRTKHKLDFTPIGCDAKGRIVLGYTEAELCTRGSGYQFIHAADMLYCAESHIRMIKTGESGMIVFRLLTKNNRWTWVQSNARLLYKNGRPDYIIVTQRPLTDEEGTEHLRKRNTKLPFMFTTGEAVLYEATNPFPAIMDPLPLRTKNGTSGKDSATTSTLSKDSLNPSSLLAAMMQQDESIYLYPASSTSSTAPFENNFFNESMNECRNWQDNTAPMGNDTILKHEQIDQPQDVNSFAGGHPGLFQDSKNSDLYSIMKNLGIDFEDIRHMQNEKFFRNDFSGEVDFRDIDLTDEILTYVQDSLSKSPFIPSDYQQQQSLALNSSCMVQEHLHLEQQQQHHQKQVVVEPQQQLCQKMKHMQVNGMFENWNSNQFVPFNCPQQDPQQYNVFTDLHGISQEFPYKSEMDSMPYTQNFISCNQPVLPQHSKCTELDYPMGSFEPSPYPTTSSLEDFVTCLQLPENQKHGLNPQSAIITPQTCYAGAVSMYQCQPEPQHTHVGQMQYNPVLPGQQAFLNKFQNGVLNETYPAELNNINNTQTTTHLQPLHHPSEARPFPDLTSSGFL

NADPH oxidase 1 = NADPH oxidase 1 (Homo sapiens, UniProt Q9Y5S8); assay: Late-stage luminescence-based cell-based dose response assay to identify inhibitors of NADPH oxidase 1 (NOX1): Synthesized analogs.; type: functional
[2] = biological target: G-protein coupled receptor 55 (Homo sapiens, UniProt Q9Y2T6); assay: selective activators of receptor GPR55 – imaging, U2OS cells, beta-arrestin-GFP redistribution, primary screen (AID 1961); type: functional
Large T antigen = Large T antigen (Simian virus 40, UniProt P03070); type: functional, Betapolyomavirus macacae;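 further: Confirmatory-stage PubChem screen for compounds that inhibit SV40 T antigen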
[3] = biological target: Induced myeloid leukemia cell differentiation protein Mcl-1 (Homo sapiens, UniProt Q07820); type: functional
[4] = biological target: Eukaryotic translation initiation factor 4E (Mus musculus, UniProt P63073); assay: blockers of eIF4G binding by eIF4E – biochemical, TR-FRET, dose response (AID 855); type: functional;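 further: potency for disrupting eIF4E binding to eIF4GI seen as loss of FRET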
Hexokinase HKDC1 = biological target: T2, Hexokinase HKDC1 (Homo sapiens, UniProt Q2TB90); assay: inhibition of HKDC1 glucose phosphorylation – biochemical, W721R variant, dose response (AID 504729); type: functional
T2 sequence (Q2TB90 whole entry): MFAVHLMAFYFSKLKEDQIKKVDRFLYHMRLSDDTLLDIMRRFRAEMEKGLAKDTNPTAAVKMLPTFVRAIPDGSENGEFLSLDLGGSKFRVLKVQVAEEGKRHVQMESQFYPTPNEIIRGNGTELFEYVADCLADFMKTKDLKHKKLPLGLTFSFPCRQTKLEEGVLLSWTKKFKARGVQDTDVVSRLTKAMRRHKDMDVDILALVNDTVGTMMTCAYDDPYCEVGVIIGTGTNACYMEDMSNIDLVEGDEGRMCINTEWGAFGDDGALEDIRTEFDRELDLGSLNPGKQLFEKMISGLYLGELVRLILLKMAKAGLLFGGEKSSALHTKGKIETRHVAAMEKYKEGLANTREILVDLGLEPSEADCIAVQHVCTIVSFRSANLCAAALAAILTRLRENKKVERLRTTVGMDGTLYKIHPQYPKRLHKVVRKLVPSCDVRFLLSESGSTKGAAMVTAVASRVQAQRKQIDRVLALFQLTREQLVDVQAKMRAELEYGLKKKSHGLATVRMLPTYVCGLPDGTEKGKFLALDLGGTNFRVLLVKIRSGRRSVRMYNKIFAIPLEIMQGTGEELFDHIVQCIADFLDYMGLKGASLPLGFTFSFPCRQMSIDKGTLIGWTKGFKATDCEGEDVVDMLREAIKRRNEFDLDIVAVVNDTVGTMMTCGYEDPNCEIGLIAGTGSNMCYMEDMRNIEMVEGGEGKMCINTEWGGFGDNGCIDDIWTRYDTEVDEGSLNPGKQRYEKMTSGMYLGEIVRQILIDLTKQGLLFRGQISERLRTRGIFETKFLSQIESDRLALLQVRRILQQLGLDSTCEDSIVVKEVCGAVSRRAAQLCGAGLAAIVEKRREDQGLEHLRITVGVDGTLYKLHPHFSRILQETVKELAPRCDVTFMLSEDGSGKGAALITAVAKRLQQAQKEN

Protein Tat = Protein Tat (Human immunodeficiency virus type 1 group M subtype B (isolate HXB2)(HIV-1), UniProt P04608); type: functional;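 further: tat binding to TAR RNA read out by fluorescence polarization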
[5] = Luminescent dose response cell-based high throughput screening assay for inhibitors of the Janus kinase 2 mutant JAK2V617F. [Related pubchem assays: 1446 (Primary screen.), 1521 (Confirmation assay.), 1486 (Counter screen.)]; type: functional
BJ [6] = assay: BJ-TERT fibroblast viability loss – cell-based, RAS-independent, luminescence, dose response (AID 1933); type: functional; settings: Homo sapiens
BJ [7] = assay: cells; type: functional, cell-based; settings: Homo sapiens
BJ [8] = assay: BJ-TERT-LT-ST fibroblast viability loss – cell-based, RAS-independent, luminescence, dose response (AID 1935); type: functional; settings: Homo sapiens;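 further: BJ fibroblasts immortalized with TERT plus LT and ST oncogenes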
[9] = DRD fibroblast viability loss – cell-based, non-viral oncogenic, luminescence, dose response (AID 1934); type: functional; settings: Homo sapiens
[10] = NIH-3T3 fibroblast cytotoxicity, dose response, cytotoxicity control, cell-based, fluorescence, Alamar Blue, secondary assay (AID 2327); type: functional;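 further: NIH-3T3 mouse fibroblasts cultured with fluconazole at 8 µg/mL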
[11] = fluconazole-exposed Candida albicans growth modulators – fluorescence, retest, confirmation (AID 2467); type: functional, cell-based
[12] = biological target: T3, Mannose-6-phosphate isomerase (Homo sapiens, UniProt P34949); assay: MPI enzyme activity inhibition – biochemical, fluorescence intensity, coupled assay, primary screen (AID 1209)
T3 sequence (P34949 whole entry): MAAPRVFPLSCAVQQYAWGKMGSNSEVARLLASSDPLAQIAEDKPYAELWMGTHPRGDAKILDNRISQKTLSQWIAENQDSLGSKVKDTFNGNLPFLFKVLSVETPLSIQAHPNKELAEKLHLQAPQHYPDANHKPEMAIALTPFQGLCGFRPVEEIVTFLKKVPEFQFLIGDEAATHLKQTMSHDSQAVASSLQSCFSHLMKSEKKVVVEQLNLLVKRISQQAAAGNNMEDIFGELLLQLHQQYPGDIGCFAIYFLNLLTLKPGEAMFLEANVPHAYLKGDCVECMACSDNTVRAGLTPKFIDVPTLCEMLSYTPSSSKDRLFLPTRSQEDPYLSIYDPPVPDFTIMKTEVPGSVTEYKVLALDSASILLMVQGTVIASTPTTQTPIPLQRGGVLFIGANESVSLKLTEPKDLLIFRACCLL

[13] = biological target: T3, Mannose-6-phosphate isomerase; assay: MPI inhibition at elevated mannose 6-phosphate – biochemical, fluorescence intensity, high mannose 6-phosphate, primary screen (AID 1220)
[14] = biological target: Heat shock protein HSP 90-alpha (Homo sapiens, UniProt P07900); type: functional, organism-based
[15] = biological target: T4, Rac GTPase-activating protein 1 (Homo sapiens, UniProt Q9H0H5); assay: blockers of MgcRacGAP-driven Rac1 GTP hydrolysis – biochemical, ADP Hunter fluorescence, primary and confirmatory, confirmation (AID 624330); type: functional
T4 sequence (Q9H0H5 whole entry): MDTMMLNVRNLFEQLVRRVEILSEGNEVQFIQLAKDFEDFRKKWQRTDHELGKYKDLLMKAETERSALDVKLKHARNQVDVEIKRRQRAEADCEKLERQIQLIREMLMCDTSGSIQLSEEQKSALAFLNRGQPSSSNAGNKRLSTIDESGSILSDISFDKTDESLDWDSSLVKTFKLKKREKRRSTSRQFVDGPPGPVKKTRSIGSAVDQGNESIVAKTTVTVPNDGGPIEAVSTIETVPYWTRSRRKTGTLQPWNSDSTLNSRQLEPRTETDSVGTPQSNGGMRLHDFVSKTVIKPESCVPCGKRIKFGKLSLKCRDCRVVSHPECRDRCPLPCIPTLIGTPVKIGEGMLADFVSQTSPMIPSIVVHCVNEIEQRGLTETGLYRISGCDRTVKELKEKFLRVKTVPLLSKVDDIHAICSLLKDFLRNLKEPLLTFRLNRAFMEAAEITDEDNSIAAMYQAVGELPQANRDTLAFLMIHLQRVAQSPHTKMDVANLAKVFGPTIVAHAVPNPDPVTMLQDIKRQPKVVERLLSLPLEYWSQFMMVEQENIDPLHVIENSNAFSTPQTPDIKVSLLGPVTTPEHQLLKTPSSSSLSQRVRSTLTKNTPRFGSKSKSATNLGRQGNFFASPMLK

[16] = biological target: T5, RNA-binding protein pos-1 (Caenorhabditis elegans, UniProt G5EF15); assay: disruptors of C. elegans POS-1 RNA interaction – biochemical, fluorescence polarization, dose response (AID 1964);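 further: purified POS-1 fused to maltose binding protein made in E. coli; potency of compounds blocking POS-1 binding to fluorescent RNA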
T5 sequence (G5EF15 whole entry): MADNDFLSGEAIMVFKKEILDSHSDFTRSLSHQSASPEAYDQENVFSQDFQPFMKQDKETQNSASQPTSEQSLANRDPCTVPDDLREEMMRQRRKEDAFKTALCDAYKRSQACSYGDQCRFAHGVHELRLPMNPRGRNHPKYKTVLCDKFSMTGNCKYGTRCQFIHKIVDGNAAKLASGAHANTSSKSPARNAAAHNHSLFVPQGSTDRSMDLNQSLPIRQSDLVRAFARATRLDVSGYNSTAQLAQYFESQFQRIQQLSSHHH

[17] = biological target: T6, Zinc finger protein mex-5 (Caenorhabditis elegans, UniProt Q9XUB2); assay: potency of MEX-5 RNA-binding blockers – biochemical, C. elegans, fluorescence polarization, dose response (AID 1960)
T6 sequence (Q9XUB2 whole entry): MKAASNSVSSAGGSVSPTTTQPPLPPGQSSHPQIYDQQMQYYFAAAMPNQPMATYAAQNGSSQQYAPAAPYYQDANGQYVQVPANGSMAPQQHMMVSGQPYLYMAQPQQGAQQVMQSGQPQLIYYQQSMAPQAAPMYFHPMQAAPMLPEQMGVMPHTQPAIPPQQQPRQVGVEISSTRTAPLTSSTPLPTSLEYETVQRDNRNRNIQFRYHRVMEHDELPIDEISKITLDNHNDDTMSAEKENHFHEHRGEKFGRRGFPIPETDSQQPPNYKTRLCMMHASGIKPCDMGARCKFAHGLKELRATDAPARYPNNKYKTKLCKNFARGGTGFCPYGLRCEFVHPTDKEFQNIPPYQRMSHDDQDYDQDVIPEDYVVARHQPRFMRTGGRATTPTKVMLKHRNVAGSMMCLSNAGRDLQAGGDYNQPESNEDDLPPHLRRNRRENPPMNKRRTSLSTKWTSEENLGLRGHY

14-3-3 protein gamma = 14-3-3 protein gamma (Homo sapiens, UniProt P61981); assay: modulators of 14-3-3 gamma client binding – dose response (AID 711); type: functional
[18] = biological target: Peroxisome proliferator-activated receptor gamma/Nuclear receptor coactivator 2 (Homo sapiens, UniProt P37231); type: functional;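 further: agonist potency for raising coactivator recruitment to the receptor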
[19] = biological target: Peroxisome proliferator-activated receptor gamma/Nuclear receptor coactivator 1 (Homo sapiens, UniProt P37231); type: functional;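 further: agonist potency as compounds enhance coactivator SRC-1 recruitment to PPARgamma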
[20] = biological target: Peroxisome proliferator-activated receptor gamma/Nuclear receptor coactivator 3 (Homo sapiens, UniProt P37231); type: functional;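 further: agonist potency for raising coactivator recruitment to the receptor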
[21] = biological target: Peroxisome proliferator-activated receptor gamma/Nuclear receptor corepressor 2 (Homo sapiens, UniProt P37231+Q9Y618); assay: Counterscreen for NR2E3 inverse agonists: TR-FRET-based biochemical high throughput dose response assay to identify inverse agonists of the interaction between peroxisome proliferator-activated receptor gamma (PPARg) and nuclear receptor co-repressor 2 (NCOR2).; type: functional
[22] = biological target: Photoreceptor-specific nuclear receptor (Homo sapiens, UniProt Q9Y5X4); assay: ligands suppressing NR2E3 nuclear receptor activity – biochemical, TR-FRET, dose response (AID 463256); type: functional
[23] = biological target: Mitogen-activated protein kinase 10 (Homo sapiens, UniProt P53779); assay: Dose response biochemical screening assay for inhibitors of c-Jun N-Terminal Kinase 3 (JNK3). [Related pubchem assays: 746 ]
[24] = biological target: Dual specificity tyrosine-phosphorylation-regulated kinase 1A (Rattus norvegicus, UniProt Q63470); type: biochemical, Homo sapiens

Mitogen-activated protein kinase 10, sequence (P53779 whole entry): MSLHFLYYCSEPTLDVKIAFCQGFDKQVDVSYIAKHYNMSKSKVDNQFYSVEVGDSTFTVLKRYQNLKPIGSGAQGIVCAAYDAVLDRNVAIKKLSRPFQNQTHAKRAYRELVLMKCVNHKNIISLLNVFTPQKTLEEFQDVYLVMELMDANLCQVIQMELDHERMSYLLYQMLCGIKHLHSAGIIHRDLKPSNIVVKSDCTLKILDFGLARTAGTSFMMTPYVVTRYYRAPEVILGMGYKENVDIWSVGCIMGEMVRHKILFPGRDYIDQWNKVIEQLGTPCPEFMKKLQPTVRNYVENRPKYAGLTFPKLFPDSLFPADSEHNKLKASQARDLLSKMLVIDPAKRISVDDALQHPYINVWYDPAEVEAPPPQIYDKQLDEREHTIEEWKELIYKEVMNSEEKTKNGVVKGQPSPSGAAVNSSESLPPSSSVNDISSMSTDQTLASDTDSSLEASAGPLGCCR
G-protein coupled receptor 55, sequence (Q9Y2T6 whole entry): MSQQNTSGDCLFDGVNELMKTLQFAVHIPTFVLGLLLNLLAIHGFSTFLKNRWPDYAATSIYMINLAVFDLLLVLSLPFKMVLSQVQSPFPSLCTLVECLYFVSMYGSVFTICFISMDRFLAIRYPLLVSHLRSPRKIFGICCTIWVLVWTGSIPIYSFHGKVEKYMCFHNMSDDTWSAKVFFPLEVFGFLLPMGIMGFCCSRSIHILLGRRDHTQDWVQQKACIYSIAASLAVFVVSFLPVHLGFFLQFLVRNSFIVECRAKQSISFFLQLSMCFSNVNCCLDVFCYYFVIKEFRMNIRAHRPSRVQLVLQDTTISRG
Induced myeloid leukemia cell differentiation protein Mcl-1, sequence (Q07820 whole entry): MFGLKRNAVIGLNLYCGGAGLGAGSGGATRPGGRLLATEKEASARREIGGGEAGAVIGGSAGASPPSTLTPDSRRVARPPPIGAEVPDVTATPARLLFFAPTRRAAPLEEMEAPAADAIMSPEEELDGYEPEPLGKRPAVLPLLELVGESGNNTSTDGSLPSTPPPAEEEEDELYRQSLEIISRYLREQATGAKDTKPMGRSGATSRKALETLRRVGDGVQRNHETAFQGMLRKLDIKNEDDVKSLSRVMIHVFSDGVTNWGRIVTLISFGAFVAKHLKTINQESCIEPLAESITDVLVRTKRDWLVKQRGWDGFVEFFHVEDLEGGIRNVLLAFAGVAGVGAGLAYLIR
Photoreceptor-specific nuclear receptor, sequence (Q9Y5X4 whole entry): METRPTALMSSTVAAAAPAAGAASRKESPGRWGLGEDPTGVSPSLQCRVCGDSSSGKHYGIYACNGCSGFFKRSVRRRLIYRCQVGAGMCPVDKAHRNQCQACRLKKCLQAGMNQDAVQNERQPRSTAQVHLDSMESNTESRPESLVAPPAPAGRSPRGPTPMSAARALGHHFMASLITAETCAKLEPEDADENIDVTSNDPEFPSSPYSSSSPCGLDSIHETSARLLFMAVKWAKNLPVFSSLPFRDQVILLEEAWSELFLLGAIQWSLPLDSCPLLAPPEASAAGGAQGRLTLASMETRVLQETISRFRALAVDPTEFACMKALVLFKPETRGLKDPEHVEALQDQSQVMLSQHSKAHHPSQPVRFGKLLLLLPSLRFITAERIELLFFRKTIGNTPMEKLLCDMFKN
Protein Tat, sequence (P04608 whole entry): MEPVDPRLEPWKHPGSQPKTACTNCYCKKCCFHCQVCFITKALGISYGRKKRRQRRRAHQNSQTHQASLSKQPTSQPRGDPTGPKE
14-3-3 protein gamma, sequence (P61981 whole entry): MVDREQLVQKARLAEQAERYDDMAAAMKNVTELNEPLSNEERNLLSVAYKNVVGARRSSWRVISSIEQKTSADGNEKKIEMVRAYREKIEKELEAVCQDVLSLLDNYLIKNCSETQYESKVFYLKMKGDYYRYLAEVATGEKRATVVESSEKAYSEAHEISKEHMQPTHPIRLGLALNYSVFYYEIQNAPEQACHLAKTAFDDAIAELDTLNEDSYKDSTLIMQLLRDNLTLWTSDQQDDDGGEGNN
Eukaryotic translation initiation factor 4E, sequence (P63073 whole entry): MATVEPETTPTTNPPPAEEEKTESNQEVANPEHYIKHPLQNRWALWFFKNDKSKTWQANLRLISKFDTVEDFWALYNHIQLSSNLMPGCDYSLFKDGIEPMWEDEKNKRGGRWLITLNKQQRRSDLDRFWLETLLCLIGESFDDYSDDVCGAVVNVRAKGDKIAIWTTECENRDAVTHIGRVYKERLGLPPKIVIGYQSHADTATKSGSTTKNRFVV
Large T antigen, sequence (P03070 whole entry): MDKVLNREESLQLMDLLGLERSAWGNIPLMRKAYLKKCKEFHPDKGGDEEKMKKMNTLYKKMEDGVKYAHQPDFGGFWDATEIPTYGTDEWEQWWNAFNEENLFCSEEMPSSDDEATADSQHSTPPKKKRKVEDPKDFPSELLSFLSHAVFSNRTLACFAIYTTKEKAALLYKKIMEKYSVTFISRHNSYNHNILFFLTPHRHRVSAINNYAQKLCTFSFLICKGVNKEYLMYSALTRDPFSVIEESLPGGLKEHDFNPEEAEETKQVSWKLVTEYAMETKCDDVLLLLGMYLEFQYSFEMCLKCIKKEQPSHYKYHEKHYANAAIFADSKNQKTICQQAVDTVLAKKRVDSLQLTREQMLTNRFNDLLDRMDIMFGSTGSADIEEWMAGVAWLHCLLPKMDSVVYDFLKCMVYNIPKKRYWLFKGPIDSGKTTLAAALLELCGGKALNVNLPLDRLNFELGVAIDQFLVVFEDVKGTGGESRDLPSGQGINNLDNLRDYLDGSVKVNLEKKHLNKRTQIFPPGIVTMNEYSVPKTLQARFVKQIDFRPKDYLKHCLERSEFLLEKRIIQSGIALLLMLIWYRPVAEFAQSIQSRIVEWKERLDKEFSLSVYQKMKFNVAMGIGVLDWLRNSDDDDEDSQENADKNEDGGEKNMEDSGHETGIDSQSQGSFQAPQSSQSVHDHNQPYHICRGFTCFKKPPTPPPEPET
Peroxisome proliferator-activated receptor gamma/Nuclear receptor coactivator 1, sequence (P37231 whole entry): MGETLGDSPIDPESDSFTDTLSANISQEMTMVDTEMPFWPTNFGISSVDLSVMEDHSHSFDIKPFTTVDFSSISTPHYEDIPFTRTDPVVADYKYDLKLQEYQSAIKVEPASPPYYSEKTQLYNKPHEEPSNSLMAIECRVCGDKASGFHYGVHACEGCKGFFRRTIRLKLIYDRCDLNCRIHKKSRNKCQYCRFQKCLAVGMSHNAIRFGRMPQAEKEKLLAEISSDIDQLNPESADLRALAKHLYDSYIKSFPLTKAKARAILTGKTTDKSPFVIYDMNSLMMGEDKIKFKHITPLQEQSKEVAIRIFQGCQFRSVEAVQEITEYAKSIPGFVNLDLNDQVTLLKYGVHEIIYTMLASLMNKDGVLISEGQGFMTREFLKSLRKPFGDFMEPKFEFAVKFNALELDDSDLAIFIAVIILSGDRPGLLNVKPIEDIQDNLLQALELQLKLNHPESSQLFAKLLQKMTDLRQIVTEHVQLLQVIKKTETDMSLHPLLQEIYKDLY
Peroxisome proliferator-activated receptor gamma/Nuclear receptor coactivator 1, sequence (Q15788 whole entry, further chain): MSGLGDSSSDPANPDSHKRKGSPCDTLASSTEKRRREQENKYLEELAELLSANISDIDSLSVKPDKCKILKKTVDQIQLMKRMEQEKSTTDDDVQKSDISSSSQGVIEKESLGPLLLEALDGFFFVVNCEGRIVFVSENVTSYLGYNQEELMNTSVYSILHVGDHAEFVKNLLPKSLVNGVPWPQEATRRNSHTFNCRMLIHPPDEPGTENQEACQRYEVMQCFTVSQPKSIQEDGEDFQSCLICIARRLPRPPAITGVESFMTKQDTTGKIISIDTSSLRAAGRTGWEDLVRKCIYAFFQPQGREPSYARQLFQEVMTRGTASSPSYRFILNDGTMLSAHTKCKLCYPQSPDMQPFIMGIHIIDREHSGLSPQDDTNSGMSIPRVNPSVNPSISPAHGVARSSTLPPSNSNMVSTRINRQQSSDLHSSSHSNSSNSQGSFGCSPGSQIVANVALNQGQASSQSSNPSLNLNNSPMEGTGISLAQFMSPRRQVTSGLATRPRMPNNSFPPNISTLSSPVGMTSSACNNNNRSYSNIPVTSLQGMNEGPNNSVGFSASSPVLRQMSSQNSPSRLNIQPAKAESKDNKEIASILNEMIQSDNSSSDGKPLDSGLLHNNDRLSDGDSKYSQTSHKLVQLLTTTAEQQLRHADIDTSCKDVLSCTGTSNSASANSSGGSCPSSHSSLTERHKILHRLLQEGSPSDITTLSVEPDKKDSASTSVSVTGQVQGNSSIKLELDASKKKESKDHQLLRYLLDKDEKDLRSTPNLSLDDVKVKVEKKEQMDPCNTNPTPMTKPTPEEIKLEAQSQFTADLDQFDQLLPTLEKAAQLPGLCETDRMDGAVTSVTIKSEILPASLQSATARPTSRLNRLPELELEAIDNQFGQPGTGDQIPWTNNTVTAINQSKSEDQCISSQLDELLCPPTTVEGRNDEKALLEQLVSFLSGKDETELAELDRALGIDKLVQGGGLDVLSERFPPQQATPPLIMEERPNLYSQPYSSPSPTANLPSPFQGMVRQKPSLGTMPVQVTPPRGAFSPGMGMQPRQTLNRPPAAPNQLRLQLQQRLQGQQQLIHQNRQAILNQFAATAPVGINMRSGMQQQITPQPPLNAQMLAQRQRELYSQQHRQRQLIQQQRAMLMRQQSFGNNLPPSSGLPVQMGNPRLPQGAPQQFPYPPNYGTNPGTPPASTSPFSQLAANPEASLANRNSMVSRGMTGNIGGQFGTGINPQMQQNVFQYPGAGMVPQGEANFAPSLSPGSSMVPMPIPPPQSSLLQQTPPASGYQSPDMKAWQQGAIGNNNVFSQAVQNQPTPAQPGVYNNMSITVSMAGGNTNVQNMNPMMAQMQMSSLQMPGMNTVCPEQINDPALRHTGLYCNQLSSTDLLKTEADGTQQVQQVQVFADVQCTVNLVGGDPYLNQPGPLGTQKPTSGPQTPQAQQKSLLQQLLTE

Cc1ccc(-n2c(=O)[nH]cc(C(=O)Nc3ccc4c(c3)OCO4)c2=O)cc1C
EC50 [1]: 7.75 µM (active)

O=C(CSc1nc2ccccc2o1)N1c2ccccc2Sc2ccc(C(F)(F)F)cc21
IC50 (NADPH oxidase 1): > 50 µM (not active) | EC50 [2]: > 32 µM (inactive)

O=C1NC(=S)N(c2ccc(F)cc2)C(=O)/C1=C\c1ccoc1
IC50 (Large T antigen): 12.8 µM (active) | IC50 [3]: 1.53 µM (active) | IC50 [4]: 50 µM (inactive) | IC50 (Hexokinase HKDC1): 10.7 µM (active) | IC50 (Protein Tat): > 25 µM (active)

COc1ccc(Nc2nc(N)nc(CCl)n2)cc1
IC50 [5]: 1.45 µM (active) | EC50 (BJ [6]): 0.498 µM (inconclusive) | EC50 (BJ [7]): 3.57 µM (active) | EC50 (BJ [8]): > 150 µM (inconclusive) | EC50 [9]: 2.25 µM (active)

Cc1ccc(/C=[N+](\[O-])c2ccc(N(C)C)cc2)c2nsnc12
EC50 [10]: 8.84 µM (inconclusive) | EC50 [11]: 2.41 µM (active) | IC50 [12]: > 50 µM (not active) | IC50 [13]: > 50 µM (not active) | AC50 [14]: 7.84 µM (active) | IC50 [15]: 9.25 µM (active)

CC1=CC(C#N)(C#N)C(C#N)(C#N)C(c2ccccc2)N1 (centres undefined)
EC50 [16]: 3.14 µM (active) | EC50 [17]: 2.46 µM (active) | IC50 (14-3-3 protein gamma): 3.15 µM (active)

Cn1c(SCC(=O)Nc2cccc(Br)c2)nnc1-c1cc2ccccc2o1
EC50 [18]: 14.5 µM (not active) | EC50 [19]: 13.3 µM (not active) | EC50 [20]: 18.3 µM (not active) | IC50 [21]: 0.152 µM (active) | IC50 [22]: 0.167 µM (active)

C/C(=N/Cc1cccnc1)C1=C(O)c2ccccc2C1=O
IC50 [23]: 20 µM (not active) | AC50 [24]: 12.9 µM (active)

Reference: ChEMBL document CHEMBL1201862, “PubChem BioAssay data set” (2004)
